Data reported in ChEMBL document CHEMBL1146570, “Eudesmane derivatives and other sesquiterpenes from Laggera alata” (J Nat Prod, 2003).

Columns and labels:
[1] = tested on: KB; experiment: Cytotoxicity against human KB cells after 72 hrs; assay type: functional, cell-based
[2] = tested on: A549; experiment: Cytotoxicity against human A549 cells at 20 ug/mL after 72 hrs; assay type: functional; conditions: A549, 72 h
[3] = tested on: SK-MEL; experiment: Cytotoxicity against human SK-MEL cells at 20 ug/mL after 72 hrs; assay type: functional

In the case of `C=C(C(=O)O)[C@@H]1CC[C@@]2(C)CC[C@@H](O)[C@@](C)(O)[C@@H]2C1`, the IC50 [1] is reported as over 100 µM.
Molecule `C=C(C(=O)O)[C@@H]1CC[C@@]2(C)CCC[C@@](C)(O)[C@@H]2C1` [ILICIC ACID] has an inhibition at 20 µg/mL [2] of 10.3% and an inhibition at 20 µg/mL [3] of 23.6%.
